Test results from publication PMC7657664 (Harmful algae, 2020).
Like-named read-outs stand apart in the source and are kept apart here.

Key:
[1] = target: T1, Torpedo-nAChR of embryonic muscle type (α1)2β1γδ (Torpedo marmorata, UniProt P02711+Q6S3H8+Q6S3H9); assay: microplate receptor-binding assay, competition with biotin-α-bungarotoxin
[2] = target: T1, Torpedo-nAChR of embryonic muscle type (α1)2β1γδ; assay: as above; remark: listed apart in the source

| Molecule | IC50 [1] [µM] | IC50 [2] [µM] |
| --- | --- | --- |
| C=CC1=C[C@@H]2[C@@H]3O[C@]4(C[C@H]5CCC[C@@]6(CC[C@@]7(O[C@@H](CC[C@@]7(C)O)CC(=C)CCCC7=NC[C@H](C)[C@@H](C)C[C@@]72CC1)O6)O5)C[C@@H](C)[C@@H](O)[C@H]3O4 [PnTX-G, pinnatoxin-G] | 0.0186 |  |
| 28-O-palmitoyl ester of pinnatoxin-G [Palmitoyl-PnTX-G] |  | 13.1 |
